# Values quoted from earlier work in PMC9014651 (Bioorganic Chemistry, 2022).
# Test system: coronavirus variants (B.1.1.7 and B.1.351)
# Conditions: cited from earlier work
smiles,measurement,value
Cc1ccc(NC(=O)c2ccc(CN3CCN(C)CC3)cc2)cc1Nc1nc(-c2cccnc2)cs1 [Masitinib],Effect on tested coronavirus variants in vitro,effective
